Laboratory results as given in the supplement of paper PMC11208160.

Assay: recombinant UMI read abundance after kanamycin selection (control-corrected) (log10(CPM+1)); higher = more efficient recombination; extreme values may be limits of the assay; sequences stand for … in AGTGCAGAGAAAATCGGCCAGTTTTCTCTGCCTGCAGTCCGCATGCCGTGGGACCCCTTGGGTTCTAACCTGTTGCCTAGATTTATGCAGCGGACTGCCTTTCTCCCAAAGTGATAAACCGG…AGGTTGGTTTCACT; site = the 11-nt donor
How it was run: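 Values are reported as log10(CPM+1), obtained by converting sequencing counts to CPM, averaging replicates and scaling by control-derived factors. The counts came from recombinant UMIs amplified by PCR across the donor–target junction. These UMIs came from a pooled Escherichia coli screen of donor and donor-binding-loop pairs for the IS621 bridge recombinase, plated with IPTG (0.07 mM) plus kanamycin or left unselected, in two replicates each.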
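Further: IS621 bridge recombinase in Escherichia coli cells against a fixed T5 target plasmid.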

| Sequence | recombinant UMI read abundance (log10) |
| --- | --- |
| CAAGCGCCATGGACCGGTTTTCCCGGTAATCCGTATTTGTG (site CAAGCGCCTCA) | 0.0111 |
| CAAGCGCCATGGACCGGTTTTCCCGGTAATCCGTATTTGTG (site CAAGCGCCTCC) | 0.0342 |
| CAAGCGCCATGGACCGGTTTTCCCGGTAATCCGTATTTGTG (site CAAGCGCCTCG) | 1.36 |
| CAAGCGCCATGGACCGGTTTTCCCGGTAATCCGTATTTGTG (site CAAGCGCCTCT) | 0.218 |
| CAAGCGCCATGGACCGGTTTTCCCGGTAATCCGTATTTGTG (site CAAGCGCCTGA) | 0.706 |
| CAAGCGCCATGGACCGGTTTTCCCGGTAATCCGTATTTGTG (site CAAGCGCCTTA) | 0.627 |
| CAAGCGCCATGGACCGGTTTTCCCGGTAATCCGTATTTGTG (site CAAGCGGCTCA) | 0.00842 |
| CAAGCGCCATGGACCGGTTTTCCCGGTAATCCGTATTTGTG (site CAAGCGTCTCA) | 1.85 |
| CAAGCGCCATGGACCGGTTTTCCCGGTAATCCGTATTTGTG (site CAAGCTCCTCA) | 0.185 |
| CAAGCGCCATGGACCGGTTTTCCCGGTAATCCGTATTTGTG (site CAAGGGCCTCA) | 0.0216 |
| CAAGCGCCATGGACCGGTTTTCCCGGTAATCCGTATTTGTG (site CAAGTGCCTCA) | 0.0157 |
| CAAGCGCCATGGACCGGTTTTCCCGGTAATCCGTATTTGTG (site CAATCGCCTCA) | 0.0117 |
| CAAGCGCCATGGACCGGTTTTCCCGGTAATCCGTATTTGTG (site CACGCGCCTCA) | 0.0238 |
| CAAGCGCCATGGACCGGTTTTCCCGGTAATCCGTATTTGTG (site CAGGCGCCTCA) | 0.0473 |
| CAAGCGCCATGGACCGGTTTTCCCGGTAATCCGTATTTGTG (site CATGCGCCTCA) | 0.047 |
| CAAGCGCCATGGACCGGTTTTCCCGGTAATCCGTATTTGTG (site CCAGCGCCTCA) | 0.00697 |
| CAAGCGCCATGGACCGGTTTTCCCGGTAATCCGTATTTGTG (site CGAGCGCCTCA) | 0.0092 |
| CAAGCGCCATGGACCGGTTTTCCCGGTAATCCGTATTTGTG (site CTAGCGCCTCA) | 0.0166 |
| CAAGCGCCATGGACCGGTTTTCCCGGTAATCCGTATTTGTG (site GAAGCGCCTCA) | 0.0137 |
| CAAGCGCCATGGACCGGTTTTCCCGGTAATCCGTATTTGTG (site TAAGCGCCTCA) | 0.0306 |
| CAAGCGGCATGGACCGGTTTTCCCGGTAATCCGTATTTGCT (site CAAGCAGCTAG) | 0.584 |
| CAAGCGGCATGGACCGGTTTTCCCGGTAATCCGTATTTGCT (site CAAGCCGCTAG) | 0 |
| CAAGCGGCATGGACCGGTTTTCCCGGTAATCCGTATTTGCT (site CAAGCGGCTAG) | 1.72 |

| Sequence | recombinant UMI read abundance (log10) |
| --- | --- |
| CAAGCGGCATGGACCGGTTTTCCCGGTAATCCGTATTTGCT (site CAAGCTGCTAG) | 0 |
| CAAGCTGCATGGACCGGTTTTCCCGGTAATCCGTATTTGGG (site CAAGCTGCTCC) | 0.0432 |
| CAAGGACCATGGACCGGTTTTCCCGGTAATCCGTATTTGGG (site CAAGGACCTCC) | 0 |
| CAAGGACCATGGACCGGTTTTCCCGGTAATCCGTATTTGGG (site CCAGGACCTCC) | 0.0136 |
| CAAGGACCATGGACCGGTTTTCCCGGTAATCCGTATTTGGG (site CGAGGACCTCC) | 0.0074 |
| CAAGGACCATGGACCGGTTTTCCCGGTAATCCGTATTTGGG (site CTAGGACCTCC) | 0.0255 |
| CAAGGCACATGGACCGGTTTTCCCGGTAATCCGTATTTGGG (site CAAGACACTCC) | 0.00686 |
| CAAGGCACATGGACCGGTTTTCCCGGTAATCCGTATTTGGG (site CAAGCCACTCC) | 0.0196 |
| CAAGGCACATGGACCGGTTTTCCCGGTAATCCGTATTTGGG (site CAAGGCACTCC) | 0.0216 |
| CAAGGCACATGGACCGGTTTTCCCGGTAATCCGTATTTGGG (site CAAGTCACTCC) | 0.397 |
| CAAGGCCCATGGACCGGTTTTCCCGGTAATCCGTATTTGTT (site CAAGGCCCTAA) | 0.0195 |
| CAAGGCCCATGGACCGGTTTTCCCGGTAATCCGTATTTGTT (site CACGGCCCTAA) | 0.0285 |
| CAAGGCCCATGGACCGGTTTTCCCGGTAATCCGTATTTGTT (site CAGGGCCCTAA) | 0.0144 |
| CAAGGCCCATGGACCGGTTTTCCCGGTAATCCGTATTTGTT (site CATGGCCCTAA) | 0.0187 |
| CAAGGCGCATGGACCGGTTTTCCCGGTAATCCGTATTTGGA (site CAAGGCGCTTC) | 1.42 |
| CAAGGGCCATGGACCGGTTTTCCCGGTAATCCGTATTTGTG (site CAAGAGCCTCA) | 0.431 |
| CAAGGGCCATGGACCGGTTTTCCCGGTAATCCGTATTTGTG (site CAAGCGCCTCA) | 0.0177 |
| CAAGGGCCATGGACCGGTTTTCCCGGTAATCCGTATTTGTG (site CAAGGGCCTCA) | 0.314 |
| CAAGGGCCATGGACCGGTTTTCCCGGTAATCCGTATTTGTG (site CAAGTGCCTCA) | 0.115 |
| CAAGGGGCATGGACCGGTTTTCCCGGTAATCCGTATTTGTT (site CAAGGGGCTAA) | 2.43 |
| CAAGGTGCATGGACCGGTTTTCCCGGTAATCCGTATTTGAT (site CAAGGTGCTAT) | 2.52 |
| CAAGGTGCATGGACCGGTTTTCCCGGTAATCCGTATTTGAT (site CCAGGTGCTAT) | 0.8 |
| CAAGGTGCATGGACCGGTTTTCCCGGTAATCCGTATTTGAT (site CGAGGTGCTAT) | 1.13 |

| Sequence | recombinant UMI read abundance (log10) |
| --- | --- |
| CAAGGTGCATGGACCGGTTTTCCCGGTAATCCGTATTTGAT (site CTAGGTGCTAT) | 1.67 |
| CAAGTAGCATGGACCGGTTTTCCCGGTAATCCGTATTTGCT (site CAAGAAGCTAG) | 0 |
| CAAGTAGCATGGACCGGTTTTCCCGGTAATCCGTATTTGCT (site CAAGCAGCTAG) | 0.378 |
| CAAGTAGCATGGACCGGTTTTCCCGGTAATCCGTATTTGCT (site CAAGGAGCTAG) | 0.0678 |
| CAAGTAGCATGGACCGGTTTTCCCGGTAATCCGTATTTGCT (site CAAGTAGCTAG) | 1.66 |
| CAAGTATCATGGACCGGTTTTCCCGGTAATCCGTATTTGAG (site CAAGTATCTCT) | 3.07 |
| CAAGTATCATGGACCGGTTTTCCCGGTAATCCGTATTTGAG (site CTAGTATCTGT) | 0 |
| CAAGTCACATGGACCGGTTTTCCCGGTAATCCGTATTTGGA (site CAAGTCACTAC) | 0.358 |
| CAAGTCACATGGACCGGTTTTCCCGGTAATCCGTATTTGGA (site CAAGTCACTCC) | 0.638 |
| CAAGTCACATGGACCGGTTTTCCCGGTAATCCGTATTTGGA (site CAAGTCACTGC) | 0.803 |
| CAAGTCACATGGACCGGTTTTCCCGGTAATCCGTATTTGGA (site CAAGTCACTTC) | 2.03 |
| CAAGTCACATGGACCGGTTTTCCCGGTAATCCGTATTTGTG (site CAAGTCACTCA) | 0.0199 |
| CAAGTCACATGGACCGGTTTTCCCGGTAATCCGTATTTGTG (site CAAGTCACTCC) | 0.0385 |
| CAAGTCACATGGACCGGTTTTCCCGGTAATCCGTATTTGTG (site CAAGTCACTCG) | 0.151 |
| CAAGTCACATGGACCGGTTTTCCCGGTAATCCGTATTTGTG (site CAAGTCACTCT) | 0.103 |
| CAAGTCCCATGGACCGGTTTTCCCGGTAATCCGTATTTGGG (site CAAGTCACTCC) | 0.0127 |
| CAAGTCCCATGGACCGGTTTTCCCGGTAATCCGTATTTGGG (site CAAGTCCCTCC) | 0.00917 |
| CAAGTCCCATGGACCGGTTTTCCCGGTAATCCGTATTTGGG (site CAAGTCGCTCC) | 0.0161 |
| CAAGTCCCATGGACCGGTTTTCCCGGTAATCCGTATTTGGG (site CAAGTCTCTCC) | 0.025 |
| CAAGTGCCATGGACCGGTTTTCCCGGTAATCCGTATTTGTG (site CAAGAGCCTCA) | 0.354 |
| CAAGTGCCATGGACCGGTTTTCCCGGTAATCCGTATTTGTG (site CAAGCGCCTCA) | 0.389 |
| CAAGTGCCATGGACCGGTTTTCCCGGTAATCCGTATTTGTG (site CAAGGGCCTCA) | 0.21 |
